Test results from US6479514B1, “Quinoline-aminomethyl-pyridyl derivatives with anti-helicobacter activity” (Altana Pharma AG, priority 1998, dated 2002).

Experiments:
Helicobacter pylori = test: Activity against Helicobacter pylori, agar dilution (method of Iwahi et al.), Columbia agar, 4 days growth; assay type: cell-based; details: Columbia agar (Oxoid), growth period of 4 days, approximate values; for MIC50: 96 h, read-out: Appr. MIC 50
Description: The compounds of the formula I were investigated with respect to their activity against Helicobacter pylori following the method described by Tomoyuki Iwahi et al. (Antimicrobial Agents and Chemotherapy, 1991, 490-496) using Columbia agar (Oxoid) and a growth period of 4 days.

MIC50 (Helicobacter pylori) [µg/mL]	melting point	Appr. MIC 50 (Helicobacter pylori)	Compound
≤ 0.1	–	–	Cc1c(SCCCN2CCN(CC3CN(Cc4ccncc4)C(=O)O3)CC2)ccnc1CNc1cnc2ccccc2c1 (stereo not shown) [Compound 27, 5-(4-{3-[3-Methyl-2-(quinolin-3-ylaminomethyl)-pyridin-4-ylsulfanyl]-propyl}-piperazin-1-ylmethyl)-3-pyridin-4-ylmethyl-oxazolidin-2-one]
≤ 0.1	100 to 104 °C	–	Cc1c(SCCCSCC2CN(C(C)C)C(=O)O2)ccnc1CNc1cnc2ccccc2c1 (stereo not shown) [Compound 17, 3-Isopropyl-5-{3-[3-methyl-2-(quinolin-3-ylaminomethyl)-pyridin-4-ylsulfanyl]-propylsulfanylmethyl}-oxazolidin-2-one]
≤ 0.1	152 to 155 °C	–	Cc1c(OCCSCCn2c([N+](=O)[O-])cnc2C)ccnc1CNc1cnc2ccccc2c1 [Compound 22, (3-Methyl-4-{2-[2-(2-methyl-5-nitro-imidazol-1-yl)-ethylsulfanyl]-ethoxy}-pyridin-2-ylmethyl)-quinolin-3-yl-amine]
≤ 0.1	138 to 141 °C	–	Cc1c(OCCCSCCn2c([N+](=O)[O-])cnc2C)ccnc1CNc1cnc2ccccc2c1 [Compound 23, (3-Methyl-4-{3-[2-(2-methyl-5-nitro-imidazol-1-yl)-ethylsulfanyl]-propoxy}-pyridin-2-ylmethyl)-quinolin-3-yl-amine]
≤ 0.1	–	–	Cc1c(SCCSCc2cccnc2)ccnc1CNc1cnc2ccccc2c1 [Compound 35, {3-Methyl-4-[2-(pyridin-3-ylmethylsulfanyl)-ethylsulfanyl]-pyridin-2-ylmethyl}-quinolin-3-yl-amine]
≤ 0.1	–	–	Cc1c(SCCCSCC2CCCN(C)C2)ccnc1CNc1cnc2ccccc2c1.O=C(O)C(=O)O (stereo not shown) [Compound 11, {3-Methyl-4-[3-(1-methylpiperidin-3-ylmethylsulfanyl)propylsulfanyl]pyridin-2-ylmethyl}-quinolin-3-ylamine oxalate]
≤ 0.1	–	–	Cc1c(OCCCSCc2ccncc2)ccnc1CNc1cnc2ccccc2c1 [Compound 24, {3-Methyl-4-[3-(pyridin-4-ylmethylsulfanyl)-propoxy]-pyridin-2-ylmethyl}-quinolin-3-yl-amine]
–	105 to 108 °C	–	Cc1c(SCCCN2CCNCC2)ccnc1CNc1cnc2ccccc2c1 [Compound 4, [3-Methyl-4-(3-piperazin-1-ylpropylsulfanyl)pyridin-2-ylmethyl]quinolin-3-ylamine]
–	–	≦0.1 μg/ml	Cc1c(SCCCCSCCn2c([N+](=O)[O-])cnc2C)ccnc1CNc1cnc2ccccc2c1 [Compound 13, (3-Methyl-4-{4-[2-(2-methyl-5-nitroimidazol-1-yl)ethylsulfanylbutyl]sulfanyl}pyridin-2-yl-methyl)quinolin-3-ylamine]
≤ 0.1	–	–	Cc1c(SCCSCc2ccncc2)ccnc1CNc1cnc2ccccc2c1 [Compound 8, {3-Methyl-4-[2-(pyridin-4-ylmethylsulfanyl)ethylsulfanyl]pyridin-2-ylmethyl}quinolin-3-ylamine]
≤ 0.1	106 to 108 °C	–	Cc1c(SCC2CCCN(C)C2)ccnc1CNc1cnc2ccccc2c1 (stereo not shown) [Compound 32, [3-Methyl-4-(1-methyl-piperidin-3-ylmethylsulfanyl)-pyridin-2-ylmethyl]-quinolin-3-yl-amine]
≤ 0.1	–	–	Cc1c(SCCCSCc2ccccn2)ccnc1CNc1cnc2ccccc2c1 [Compound 29, {3-Methyl-4-[3-(pyridin-2-ylmethylsulfanyl)-propylsulfanyl]-pyridin-2-ylmethyl}-quinolin-3-yl-amine]
≤ 0.1	98 to 100 °C	–	Cc1c(SCCCSCC2CN(C)C(=O)O2)ccnc1CNc1cnc2ccccc2c1 (stereo not shown) [Compound 1, 3-Methyl-5-{3-[3-methyl-2-(quinolin-3-ylaminomethyl)pyridin4-ylsulfanyl]propylsulfanylmethyl}oxazolidin-2-one]
≤ 0.1	152 to 154 °C	–	Cc1c(SCCSCCn2c([N+](=O)[O-])cnc2C)ccnc1CNc1cnc2ccccc2c1 [Compound 9, (3-Methyl-4-{2-[2-(2-methyl-5-nitroimidazol-1-yl)ethylsulfanyl]ethylsulfanyl}pyridin-2-ylmethyl)quinolin-3-ylamine]
≤ 0.1	–	–	Cc1c(OCCSCc2ccncc2)ccnc1CNc1cnc2ccccc2c1 [Compound 21, {3-Methyl-4-[2-(pyridin-4-ylmethylsulfanyl)-ethoxy]-pyridin-2-ylmethyl}-quinolin-3-yl-amine]
≤ 0.1	95 to 99 °C	–	Cc1c(SCCCSCCCn2cc([N+](=O)[O-])nc2C)ccnc1CNc1cnc2ccccc2c1 [Compound 18, (3-Methyl-4-{3-[3-(2-methyl-4-nitro-imidazol-1-yl)-propylsulfanyl]-propylsulfanyl}-pyridin-2-ylmethyl)-quinolin-3-yl-amine]
≤ 0.1	78 to 81 °C	–	Cc1c(SCCCSCC2CN(CC3CC3)C(=O)O2)ccnc1CNc1cnc2ccccc2c1 (stereo not shown) [Compound 19, 3-Cyclopropylmethyl-5-{3-[3-methyl-2-(quinolin-3-ylaminomethyl)-pyridin-4ylsulfanyl]-propylsulfanylmethyl}-oxazolidin-2-one]
≤ 0.1	–	–	Cc1c(SCCCSCc2ccc(Cl)s2)ccnc1CNc1cnc2ccccc2c1 [Compound 14, {4-[3-(5-Chlorothiophen-2-ylmethylsulfanyl)propylsulfanyl]-3-methylpyridin-2-ylmethyl}-quinolin-3-ylamine]
≤ 0.1	65 to 67 °C	–	Cc1c(OCCOCCSCc2ccccn2)ccnc1CNc1cnc2ccccc2c1 [Compound 31, (3-Methyl-4-{2-[2-(pyridin-2-ylmethylsulfanyl)-ethoxy]-ethoxy}-pyridin-2-ylmethyl)-quinolin-3-yl-amine]
≤ 0.1	–	–	Cc1c(OCCSCc2cccnc2)ccnc1CNc1cnc2ccccc2c1 [Compound 33, {3-Methyl-4-[2-(pyridin-3-ylmethylsulfanyl)-ethoxy]-pyridin-2-ylmethyl}-quinolin-3-yl-amine]
≤ 0.1	84 to 86 °C	–	Cc1c(OCCOCCSCc2cccnc2)ccnc1CNc1cnc2ccccc2c1 [Compound 30, (3-Methyl-4-{2-[2-(pyridin-3-ylmethylsulfanyl)-ethoxy]-ethoxy}-pyridin-2-ylmethyl)-quinolin-3-yl-amine]
≤ 0.1	–	–	Cc1c(SCCCN2CCN(Cc3ccncc3)CC2)ccnc1CNc1cnc2ccccc2c1 [Compound 10, {3-Methyl-4-[3-(4-pyridin-4-ylmethylpiperazin-1-yl)propylsulfanyl]pyridin-2-ylmethyl}-quinolin-3-ylamine]
≤ 0.1	125 to 126 °C	–	Cc1c(SCCCSCCO)ccnc1CNc1cnc2ccccc2c1 [Compound 25, 2-{3-[3-Methyl-2-(quinolin-3-ylaminomethyl)-pyridin-4-ylsulfanyl]-propylsulfanyl}-ethanol]
≤ 0.1	119 to 120 °C	–	Cc1c(OCCCCSCCO)ccnc1CNc1cnc2ccccc2c1 [Compound 26, 2-{4-[3-Methyl-2-(quinolin3-ylaminomethyl)-pyridin-4-yloxy]-butylsulfanyl}-ethanol]
≤ 0.1	133 to 135 °C	–	Cc1c(SCCCSCCn2c([N+](=O)[O-])cnc2C)ccnc1CNc1cnc2ccccc2c1 [Compound 15, (3-Methyl-4-{3-[2-(2-methyl-5-nitroimidazol-1-yl)ethylsulfanyl]propylsulfanyl}-pyridin-2-ylmethyl)quinolin-3-ylamine]
≤ 0.1	212 to 215 °C (dec.)	–	Cc1c(SCCOCC(F)(F)F)ccnc1CNc1cnc2ccccc2c1.Cl [Compound 36, (3-Methyl-4-{2-[2,2,2-trifluoro-ethoxy)-ethylsulfanyl}-pyridin-2-ylmethyl)-quinolin-3-yl-amine hydrochloride]
≤ 0.1	–	–	Cc1c(SCCCSc2ncccn2)ccnc1CNc1cnc2ccccc2c1 [Compound 2, {3-Methyl4-[3-(pyrimidin-2-ylsulfanyl)propylsulfanyl]pyridin-2-ylmethyl}quinolin-3-ylamine]
≤ 0.1	–	–	Cc1c(OCCSCc2ccccn2)ccnc1CNc1cnc2ccccc2c1 [Compound 34, {3-Methyl-4-[2-(pyridin-2-ylmethylsulfanyl)-ethoxy]-pyridin-2-ylmethyl}-quinolin-3-yl-amine]
≤ 0.1	–	–	Cc1c(SCCCSCc2ccncc2)ccnc1CNc1cnc2ccccc2c1 [Compound 12, {3-Methyl-4-[3-(pyridin-4-ylmethylsulfanyl)propylsulfanyl]pyridin-2-ylmethyl}quinolin-3-ylamine]
≤ 0.1	–	–	Cc1c(OCCOCCSCc2ccncc2)ccnc1CNc1cnc2ccccc2c1 [Compound 28, (3-Methyl-4-{2-[2-(pyridin-4-ylmethylsulfanyl)-ethoxy]-ethoxy}-pyridin-2-ylmethyl)-quinolin-3-yl-amine]

Compound	MIC50 (Helicobacter pylori) [µg/mL]	melting point	Appr. MIC 50 (Helicobacter pylori)
Cc1c(OCCCCSc2ncccn2)ccnc1CNc1cnc2ccccc2c1 [Compound 16, {3-Methyl-4-[4-(pyrimidin-2-ylsulfanyl)-butoxy]-pyridin-2-ylmethyl}-quinolin-3-yl-amine]	≤ 0.1	–	–
Cc1c(OCCCCSCC2CCCN(C)C2)ccnc1CNc1cnc2ccccc2c1 (stereo not shown) [Compound 20, {3-Methyl-4-[4-(1-methyl-piperidin-3-ylmethylsulfanyl)-butoxy]-pyridin-2-ylmethyl}-quinolin-3-yl-amine]	≤ 0.1	–	–
Cc1c(OCCCCSCCn2c([N+](=O)[O-])cnc2C)ccnc1CNc1cnc2ccccc2c1 [Compound 7, (3-Methyl-4-{4-[2-(2-methyl-5-nitroimidazol-1-yl)ethylsulfanyl]butoxy}pyridin-2-ylmethyl)-quinolin-3-ylamine]	≤ 0.1	154 to 158 °C	–
Cc1c(OCCCCSCc2ccncc2)ccnc1CNc1cnc2ccccc2c1 [Compound 6, {3-Methyl-4-[4-(pyridin4-ylmethylsulfanyl)butoxy]pyridin-2-ylmethyl}quinolin3-ylamine]	≤ 0.1	–	–
